Data set [1] concerns SK-Hep-1 cell. The data set is described as follows: Bioprobing and bioimaging, fluorescence microscopy of SK-Hep-1 cell. It counts as cell-based. Particulars: for fluorescence signal in SK-Hep-1 cell: 48 hours incubation, nanodot solutions 20 mM, different excitation light sources. As for the experimental part: SK-Hep-1 cell was incubated under 37° C. for 12 hours (overnight). Then avidin (purchased from Sigma) was added into the SK-Hep-1 cell to form a cell culture. […] Then the cell was fixed by paraformaldehyde.
SK-Hep-1 cell was incubated under 37° C. for 12 hours (overnight). Then avidin-FITC (purchased from Sigma) was added into the SK-Hep-1 cell to form a cell culture.
SK-Hep-1 cell was incubated under 37° C. for 12 hours (overnight). Then the 3-aminopropyltriethoxysilane nanodot solution (20 mM) prepared in example 4 and the avidin modified 3-aminopropyltriethoxysilane nanodot solution (20 mM) were added into this SK-Hep-1 cell to form two cell cultures respectively. […] Then the cell was fixed by paraformaldehyde. […] Referring to FIG. 10, FIGS. 10(a)-(d) show the SK-Hep-1 cell added with 3-aminopropyltriethoxysilane nanodot solution. FIGS. 10(m)-(p) show the SK-Hep-1 cell added with avidin modified 3-aminopropyltriethoxysilane nanodot solution. […] Therefore, the fluorescence signal of FIGS. 10(b)-(d) and (n)-(p) resulted from the nanodot. In addition, FIGS. 10(i)-(I) show the SK-Hep-1 cell added with avidin-FITC. […] FIGS. 13(a)-(c) show the images of the SK-Hep-1 cell added with 3-aminopropyltriethoxysilane nanodot solution and continuously irradiated with excitation light, wherein FIGS. 13(a)-(c) are the images observed at 0 minutes, 2 minutes and 5 minutes respectively. FIGS. 13(d)-(f) show the images of the SK-Hep-1 cell added with avidin-FITC and continuously irradiated with excitation light, wherein FIGS. 13(d)-(f) are the images observed at 0 minutes, 2 minutes and 5 minutes respectively. FIGS. 13(g)-(i) show the images of the SK-Hep-1 cell added with avidin modified 3-aminopropyltriethoxysilane nanodot solution and continuously irradiated with excitation light, wherein FIGS. 13(g)-(i) are the images observed at 0 minutes, 2 minutes and 5 minutes respectively. […] Therefore, the nanodot has better photo stability.

Data set [2] deals with SK-Hep-1 cell. The data set is described as follows: Stability measurement of fluorescence under continuous excitation light in SK-Hep-1 cell. In kind it is cell-based. Particulars: continuously irradiated with excitation light, observed at 2 minutes and 5 minutes versus 0 minutes. As for the experimental part: SK-Hep-1 cell was incubated under 37° C. for 12 hours (overnight). Then the 3-aminopropyltriethoxysilane nanodot solution (20 mM) prepared in example 4 and the avidin modified 3-aminopropyltriethoxysilane nanodot solution (20 mM) were added into this SK-Hep-1 cell to form two cell cultures respectively. […] Then the cell was fixed by paraformaldehyde. […] Referring to FIG. 10, FIGS. 10(a)-(d) show the SK-Hep-1 cell added with 3-aminopropyltriethoxysilane nanodot solution. FIGS. 10(m)-(p) show the SK-Hep-1 cell added with avidin modified 3-aminopropyltriethoxysilane nanodot solution. […] Therefore, the fluorescence signal of FIGS. 10(b)-(d) and (n)-(p) resulted from the nanodot. In addition, FIGS. 10(i)-(I) show the SK-Hep-1 cell added with avidin-FITC. […] FIGS. 13(a)-(c) show the images of the SK-Hep-1 cell added with 3-aminopropyltriethoxysilane nanodot solution and continuously irradiated with excitation light, wherein FIGS. 13(a)-(c) are the images observed at 0 minutes, 2 minutes and 5 minutes respectively. FIGS. 13(d)-(f) show the images of the SK-Hep-1 cell added with avidin-FITC and continuously irradiated with excitation light, wherein FIGS. 13(d)-(f) are the images observed at 0 minutes, 2 minutes and 5 minutes respectively. […]

Turning to avidin, the “fluorescence signal in SK-Hep-1 cell” value in the data set with SK-Hep-1 cell [1] is “no fluorescence signal”.
On to “avidin modified 3-aminopropyltriethoxysilane nanodot: 3-aminopropyltriethoxysilane nanodot of example 4 modified with avidin”, for which the “fluorescence after continuous irradiation (photo stability)” value in the data set with SK-Hep-1 cell [2] was “only became slightly weak”. Further, the “fluorescence signal in SK-Hep-1 cell” value in the data set with SK-Hep-1 cell [1] is “significant multiphoton fluorescence with red, green and blue lights emitted”. The “effect of avidin modification on entry into cells” value in the data set with SK-Hep-1 cell [1] (FIGS. 10(n)-(p) compared with FIGS. 10(b)-(d), SK-Hep-1 cell, 48 hours) was “enhance the efficiency of the nanodot to enter into cells and aggregate in cells”.
For “avidin-FITC: avidin-FITC purchased from Sigma; FITC is a conventional organic fluorescent dye widely applied in bioimaging”, the “fluorescence after continuous irradiation (photo stability)” value with SK-Hep-1 cell [2] is given as “nearly no fluorescence”. Moreover, the “fluorescence signal in SK-Hep-1 cell” value in the data set on SK-Hep-1 cell [1] is “could not emit blue and red fluorescence”.

Values taken from US9303049B2, “Nanodot and method for manufacturing the same” (National Sun Yat-sen University, priority 2013, dated 2016).
